Structures can show the parent of a compound that is named as a salt.
The compounds below were run against BACE1 (Homo sapiens (Human), UniProt P56817) (assay: BACE1 Cell-Free Assay (fluorescence polarization)). Conditions: geometric mean of 2-4 determinations unless otherwise indicated (b: ≧5; c: single determination); read-out: BACE1 Cell-free Assay IC50.
Assay type: biochemical
Source text: This assay measures the inhibition of the beta-secretase enzyme as it cleaves a non-native peptide.
A synthetic APP substrate that can be cleaved by beta-secretase having N-terminal biotin and made fluorescent by the covalent attachment of Oregon Green at the Cys residue is used to assay beta-secretase activity in the presence or absence of the inhibitory compounds. […] The BACE1 enzyme is affinity purified material from conditioned media of CHO-K1 cells that have been transfected with a soluble BACE construct (BACE1deltaTM96His). […] Plates are covered and incubated for 3 hours at 37° C. […] The activity of the beta-secretase enzyme is detected by changes in the fluorescence polarization that occur when the substrate is cleaved by the enzyme.

Sequence of BACE1 (P56817 46-457): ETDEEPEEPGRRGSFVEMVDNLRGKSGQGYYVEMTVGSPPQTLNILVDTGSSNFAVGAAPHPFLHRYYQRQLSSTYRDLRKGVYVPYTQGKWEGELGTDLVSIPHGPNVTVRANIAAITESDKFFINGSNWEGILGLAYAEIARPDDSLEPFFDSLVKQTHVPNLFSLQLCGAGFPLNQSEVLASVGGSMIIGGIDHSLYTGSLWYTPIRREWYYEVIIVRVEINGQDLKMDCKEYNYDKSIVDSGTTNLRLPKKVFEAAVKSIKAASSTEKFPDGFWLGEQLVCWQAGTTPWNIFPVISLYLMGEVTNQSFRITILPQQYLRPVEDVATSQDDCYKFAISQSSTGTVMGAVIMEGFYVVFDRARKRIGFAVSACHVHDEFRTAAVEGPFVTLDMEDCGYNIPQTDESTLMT

In order of rising IC50:
1. C[C@H]1C[C@H]2CSC(N)=N[C@@]2(c2nc(NC(=O)c3coc(CF)n3)cs2)CO1 [Example 3, N-{2-[(4aR,6S,8aR)-2-amino-6-methyl-4,4a,5,6-tetrahydropyrano[3,4-d][1,3]thiazin-8a(8H)-yl]-1,3-thiazol-4-yl}-2-(fluoromethyl)-1,3-oxazole-4-carboxamide]  7 nM
2. C[C@H]1C[C@H]2CSC(N)=N[C@@]2(c2nc(NC(=O)c3ccn(C(F)F)n3)cs2)CO1 [Example 4, N-{2-[(4aR,6S,8aR)-2-amino-6-methyl-4,4a,5,6-tetrahydropyrano[3,4-d][1,3]thiazin-8a(8H)-yl]-1,3-thiazol-4-yl}-1-(difluoromethyl)-1H-pyrazole-3-carboxamide]  9 nM
3. CC#CCOc1cnc(C(=O)Nc2csc([C@]34CO[C@@H](C)C[C@H]3CSC(N)=N4)n2)cn1 [Example 22, N-{2-[(4aR,6S,8aR)-2-amino-6-methyl-4,4a,5,6-tetrahydropyrano[3,4-d][1,3]thiazin-8a(8H)-yl]-1,3-thiazol-4-yl}-5-(but-2-yn-1-yloxy)pyrazine-2-carboxamide]  13 nM
4. C[C@H]1C[C@H]2CSC(N)=N[C@@]2(c2nc(NC(=O)c3ccc(C#N)cn3)cs2)CO1 [Example 5, N-{2-[(4aR,6S,8aR)-2-amino-6-methyl-4,4a,5,6-tetrahydropyrano[3,4-d][1,3]thiazin-8a(8H)-yl]-1,3-thiazol-4-yl}-5-cyanopyridine-2-carboxamide]  22 nM
5. C[C@H]1C[C@H]2CSC(N)=N[C@@]2(c2nc(NC(=O)c3ccc(C(F)(F)F)cn3)cs2)CO1 [Example 17, N-{2-[(4aR,6S,8aR)-2-amino-6-methyl-4,4a,5,6-tetrahydropyrano[3,4-d][1,3]thiazin-8a(8H)-yl]-1,3-thiazol-4-yl}-5-(trifluoromethyl)pyridine-2-carboxamide]  54 nM
6. C[C@H]1C[C@H]2CSC(N)=N[C@@]2(c2nc(NC(=O)c3ccc(C(F)F)cn3)cs2)CO1 [Example 25, N-{2-[(4aR,6S,8aR)-2-amino-6-methyl-4,4a,5,6-tetrahydropyrano[3,4-d][1,3]thiazin-8a(8H)-yl]-1,3-thiazol-4-yl}-5-(difluoromethyl)pyridine-2-carboxamide]  74 nM
7. C[C@H]1C[C@H]2CSC(N)=N[C@@]2(c2nc(NC(=O)c3ccn(C)n3)cs2)CO1 [Example 24, N-{2-[(4aR,6S,8aR)-2-amino-6-methyl-4,4a,5,6-tetrahydropyrano[3,4-d][1,3]thiazin-8a(8H)-yl]-1,3-thiazol-4-yl}-1-methyl-1H-pyrazole-3-carboxamide]  81 nM
8. C[C@H]1C[C@H]2CSC(N)=N[C@@]2(c2nc(NC(=O)c3ccc(OC(F)F)cc3)cs2)CO1 [Example 21, N-{2-[(4aR,6S,8aR)-2-amino-6-methyl-4,4a,5,6-tetrahydropyrano[3,4-d][1,3]thiazin-8a(8H)-yl]-1,3-thiazol-4-yl}-4-(difluoromethoxy)benzamide]  106 nM
9. C[C@H]1C[C@H]2CSC(N)=N[C@@]2(c2nc(NC(=O)c3ccc(OC(F)(F)F)cn3)cs2)CO1 [Example 20, N-{2-[(4aR,6S,8aR)-2-amino-6-methyl-4,4a,5,6-tetrahydropyrano[3,4-d][1,3]thiazin-8a(8H)-yl]-1,3-thiazol-4-yl}-5-(trifluoromethoxy)pyridine-2-carboxamide]  108 nM
10. C[C@H]1C[C@H]2CSC(N)=N[C@@]2(c2nc(NC(=O)c3cnc(C(F)F)cn3)cs2)CO1 [Example 15, N-{2-[(4aR,6S,8aR)-2-amino-6-methyl-4,4a,5,6-tetrahydropyrano[3,4-d][1,3]thiazin-8a(8H)-yl]-1,3-thiazol-4-yl}-5-(difluoromethyl)pyrazine-2-carboxamide]  145 nM
11. C[C@H]1C[C@H]2CSC(N)=N[C@@]2(c2nc(NC(=O)c3ncc(F)cc3F)cs2)CO1 [Example 18, N-{2-[(4aR,6S,8aR)-2-amino-6-methyl-4,4a,5,6-tetrahydropyrano[3,4-d][1,3]thiazin-8a(8H)-yl]-1,3-thiazol-4-yl}-3,5-difluoropyridine-2-carboxamide]  153 nM
12. C[C@H]1C[C@H]2CSC(N)=N[C@@]2(c2nc(NC(=O)c3ccc(F)cn3)cs2)CO1 [Example 9, N-{2-[(4aR,6S,8aR)-2-amino-6-methyl-4,4a,5,6-tetrahydropyrano[3,4-d][1,3]thiazin-8a(8H)-yl]-1,3-thiazol-4-yl}-5-fluoropyridine-2-carboxamide]  189 nM
13. COc1ccc(C(=O)Nc2csc([C@]34CO[C@@H](C)C[C@H]3CSC(N)=N4)n2)nc1 [Example 19, N-{2-[(4aR,6S,8aR)-2-amino-6-methyl-4,4a,5,6-tetrahydropyrano[3,4-d][1,3]thiazin-8a(8H)-yl]-1,3-thiazol-4-yl}-5-methoxypyridine-2-carboxamide]  259 nM
14. C[C@H]1C[C@H]2CSC(N)=N[C@@]2(c2nc(NC(=O)c3cnc(OCC(F)F)cn3)cs2)CO1 [Example 12, N-{2-[(4aR,6S,8aR)-2-amino-6-methyl-4,4a,5,6-tetrahydropyrano[3,4-d][1,3]thiazin-8a(8H)-yl]-1,3-thiazol-4-yl}-5-(2,2-difluoroethoxy)pyrazine-2-carboxamide]  280 nM
15. C[C@H]1C[C@H]2CSC(N)=N[C@@]2(c2nc(NC(=O)c3cnc(CF)cn3)cs2)CO1 [Example 11, N-{2-[(4aR,6S,8aR)-2-amino-6-methyl-4,4a,5,6-tetrahydropyrano[3,4-d][1,3]thiazin-8a(8H)-yl]-1,3-thiazol-4-yl}-5-(fluoromethyl)pyrazine-2-carboxamide]  315 nM
16. COc1cnc(C(=O)Nc2csc([C@]34CO[C@@H](C)C[C@H]3CSC(N)=N4)n2)cn1 [Example 10, N-{2-[(4aR,6S,8aR)-2-amino-6-methyl-4,4a,5,6-tetrahydropyrano[3,4-d][1,3]thiazin-8a(8H)-yl]-1,3-thiazol-4-yl}-5-methoxypyrazine-2-carboxamide]  536 nM
17. C[C@H]1C[C@H]2CSC(N)=N[C@@]2(c2nc(NC(=O)c3cc4ccccn4n3)cs2)CO1 [Example 23, N-{2-[(4aR,6S,8aR)-2-amino-6-methyl-4,4a,5,6-tetrahydropyrano[3,4-d][1,3]thiazin-8a(8H)-yl]-1,3-thiazol-4-yl}pyrazolo[1,5-a]pyridine-2-carboxamide]  1000 nM

Same assay, conditions: read-out: BACE1 Cell-free Assay IC50

In order of rising IC50:
1. Cc1cc(F)cnc1C(=O)Nc1csc([C@]23CO[C@@H](C)C[C@H]2CSC(N)=N3)n1 [Example 13, N-{2-[(4aR,6S,8aR)-2-amino-6-methyl-4,4a,5,6-tetrahydropyrano[3,4-d][1,3]thiazin-8a(8H)-yl]-1,3-thiazol-4-yl}-5-fluoro-3-methylpyridine-2-carboxamide, formate salt]  90 nM
2. C[C@H]1C[C@H]2CSC(N)=N[C@@]2(c2nc(NC(=O)c3cnc(C(F)(F)F)cn3)cs2)CO1 [Example 16, N-{2-[(4aR,6S,8aR)-2-amino-6-methyl-4,4a,5,6-tetrahydropyrano[3,4-d][1,3]thiazin-8a(8H)-yl]-1,3-thiazol-4-yl}-5-(trifluoromethyl)pyrazine-2-carboxamide, formate salt]  193 nM
3. C[C@H]1C[C@H]2CSC(N)=N[C@@]2(c2nc(NC(=O)c3ccc(F)cc3)cs2)CO1 [Example 14, N-{2-[(4aR,6S,8aR)-2-amino-6-methyl-4,4a,5,6-tetrahydropyrano[3,4-d][1,3]thiazin-8a(8H)-yl]-1,3-thiazol-4-yl}-4-fluorobenzamide, formate salt]  866 nM
